According to PubChem BioAssay AID248 (DTP/NCI, 2004):
“And” between values parts separate entries of the source, which are not always exact repeats. Equal values may be shown once. Toxic doses and inconclusive results are not listed. Rule as the data show it: active = T/C of 150% or more; inactive = T/C below 125%.

System: L1210 leukemia ip in BDF1 mice, survival T/C
Assay: NCI In Vivo Anticancer Drug Screen. Data for tumor model L1210 Leukemia (intraperitoneal) in B6D2F1 (BDF1) mice
Conditions: endpoint: mean survival time, higher = longer survival
Procedure, shortened: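 Ratio derived from survival: compound-dosed mice over vehicle-dosed mice, all bearing a transplantable tumor.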

[1] = dose: 100.0 mg/kg/injection, schedule: Q04DX003 (ip), vehicle: saline
[2] = dose: 400.0 mg/kg/injection, schedule: Q04DX003 (ip), vehicle: saline
[3] = dose: 100.0 mg/kg/injection, schedule: Q01DX009 (ip), vehicle: Klucel (hydroxypropylcellulose) (HPC)
[4] = dose: 100.0 mg/kg/injection, schedule: Q04DX003 (ip), vehicle: Klucel (hydroxypropylcellulose) (HPC)
[5] = dose: 200.0 mg/kg/injection, schedule: Q01DX009 (ip), vehicle: Klucel (hydroxypropylcellulose) (HPC)
[6] = dose: 200.0 mg/kg/injection, schedule: Q04DX003 (ip), vehicle: Klucel (hydroxypropylcellulose) (HPC)
[7] = dose: 400.0 mg/kg/injection, schedule: Q01DX009 (ip), vehicle: Klucel (hydroxypropylcellulose) (HPC)
[8] = dose: 400.0 mg/kg/injection, schedule: Q04DX003 (ip), vehicle: Klucel (hydroxypropylcellulose) (HPC)
[9] = dose: 100.0 mg/kg/injection, schedule: Q01DX001 (ip), vehicle: saline
[10] = dose: 200.0 mg/kg/injection, schedule: Q01DX001 (ip), vehicle: saline
[11] = dose: 400.0 mg/kg/injection, schedule: Q01DX001 (ip), vehicle: saline
[12] = dose: 100.0 mg/kg/injection, schedule: Q01DX001 (ip), vehicle: Klucel (hydroxypropylcellulose) (HPC)
[13] = dose: 100.0 mg/kg/injection, schedule: Q01DX009 (ip), vehicle: saline with Tween-80
[14] = dose: 200.0 mg/kg/injection, schedule: Q01DX009 (ip), vehicle: saline with Tween-80

Measured: T/C

CSc1nnc(C)c(=O)[nH]1
inactive: dose: 100.0 mg/kg/injection, schedule: Q01DX001 (ip), vehicle: saline with Tween-80 100 % of control | dose: 200.0 mg/kg/injection, schedule: Q01DX001 (ip), vehicle: saline with Tween-80 102 % of control | dose: 400.0 mg/kg/injection, schedule: Q01DX001 (ip), vehicle: saline with Tween-80 97 % of control

Oc1cncc2ccccc12
inactive: [1] 94 % of control | [2] 90 % of control

N#CN(Cc1ccccc1)Cc1ccccc1
inactive: [3] 100 % of control | [4] 101 % of control | [5] 105 % of control | [6] 102 % of control | [7] 109 % of control | [8] 95 % of control

OCC1OC(n2c(N3CCOCC3)nc3ccccc32)C(O)C1O (stereo not given)
inactive: [9] 115 % of control | [10] 97 % of control | [11] 96 % of control

CC[CH2][Sn]([CH2]CC)([CH2]CC)[O]C(=O)C(Cl)(Cl)Cl
inactive: dose: 0.39 mg/kg/injection, schedule: Q01DX009 (ip), vehicle: saline with Tween-80 87 % of control | dose: 0.78 mg/kg/injection, schedule: Q01DX009 (ip), vehicle: saline with Tween-80 98 % of control | dose: 1.56 mg/kg/injection, schedule: Q01DX009 (ip), vehicle: saline with Tween-80 91 % of control

CC1(C)CCCC2(C)C(C(=O)O)C3CCC45OC3(CC12)OC(=O)C4C1(C)CCCC(C)(C)C1CC5=O (stereo not given)
inactive: [9] 101 % of control | [10] 107 % of control | [11] 109 % of control

CCC1([N+](=O)[O-])COP(=O)(NCc2ccncc2)OC1 (stereo not given)
inactive: dose: 100.0 mg/kg/injection, schedule: Q01DX001 (ip), vehicle: carboxymethylcellulose (CMC) 98 % of control | dose: 200.0 mg/kg/injection, schedule: Q01DX001 (ip), vehicle: carboxymethylcellulose (CMC) 98 % of control | dose: 400.0 mg/kg/injection, schedule: Q01DX001 (ip), vehicle: carboxymethylcellulose (CMC) 96 % of control

CSCC(NC(C)=O)C(=O)O (stereo not given)
inactive: dose: 50.0 mg/kg/injection, schedule: Q01DX001 (ip), vehicle: Klucel (hydroxypropylcellulose) (HPC) 100 % of control | [12] 98 % of control | dose: 200.0 mg/kg/injection, schedule: Q01DX001 (ip), vehicle: Klucel (hydroxypropylcellulose) (HPC) 91 % of control

CCN1/C(=C/C(C)=C/c2[se]c3ccccc3[n+]2CC)[Se]c2ccc(OC)cc21
inactive: dose: 5.0 mg/kg/injection, schedule: Q01DX001 (ip), vehicle: saline 105 % of control | dose: 10.0 mg/kg/injection, schedule: Q01DX001 (ip), vehicle: saline 100 % of control | dose: 20.0 mg/kg/injection, schedule: Q01DX001 (ip), vehicle: saline 97 % of control | dose: 40.0 mg/kg/injection, schedule: Q01DX001 (ip), vehicle: saline 100 % of control

C/C(Cc1cc(C)nc(N)n1)=N\Nc1ccccc1
inactive: dose: 6.25 mg/kg/injection, schedule: Q01DX009 (ip), vehicle: Klucel (hydroxypropylcellulose) (HPC) 93 % of control | dose: 12.5 mg/kg/injection, schedule: Q01DX009 (ip), vehicle: Klucel (hydroxypropylcellulose) (HPC) 115 % of control | dose: 25.0 mg/kg/injection, schedule: Q01DX009 (ip), vehicle: Klucel (hydroxypropylcellulose) (HPC) 91 % of control

C/C=C1\CN2CCc3c(n(C)c4ccccc34)C2CC1C(=O)OC (stereo not given)
inactive: dose: 100.0 mg/kg/injection, schedule: Q04DX003 (ip), vehicle: saline with Tween-80 101 % of control | dose: 200.0 mg/kg/injection, schedule: Q04DX003 (ip), vehicle: saline with Tween-80 88 % of control | dose: 400.0 mg/kg/injection, schedule: Q04DX003 (ip), vehicle: saline with Tween-80 106 % of control

Cc1ccc2ccccc2n1
inactive: [1] 91 % of control | dose: 200.0 mg/kg/injection, schedule: Q04DX003 (ip), vehicle: saline 93 % of control | [2] 98 % of control

CC1(O)CSC(C)(O)CS1 (stereo not given)
inactive: dose: 50.0 mg/kg/injection, schedule: Q04DX002 (ip), vehicle: saline with Tween-80 98 % of control | dose: 100.0 mg/kg/injection, schedule: Q04DX002 (ip), vehicle: saline with Tween-80 88 % of control

CCCCCCP(=O)(CCCCCC)CCCCCC (tested in a mixture with another compound)
inactive: [13] 100 % of control | [14] 86 % of control

O=C1C=C(C2OC(CO)C(O)C2O)C(=O)N1 (stereo not given)
inactive: dose: 6.0 mg/kg/injection, schedule: Q01DX015 (ip), vehicle: saline 113 % of control | dose: 6.0 mg/kg/injection, schedule: Q01DX Z (ip), vehicle: saline 115 % of control | dose: 6.2 mg/kg/injection, schedule: Q01DX001 (ip), vehicle: saline 97 % of control | dose: 9.0 mg/kg/injection, schedule: Q01DX001 (ip), vehicle: saline 101 % of control | dose: 9.0 mg/kg/injection, schedule: Q01DX015 (ip), vehicle: saline 113 % of control | dose: 9.0 mg/kg/injection, schedule: Q01DX Z (ip), vehicle: saline 122 % of control | dose: 12.0 mg/kg/injection, schedule: Q01DX001 (ip), vehicle: saline 100 % of control | dose: 12.5 mg/kg/injection, schedule: Q01DX001 (ip), vehicle: saline 109 % of control | dose: 15.0 mg/kg/injection, schedule: Q01DX001 (ip), vehicle: saline 106 % of control | dose: 15.0 mg/kg/injection, schedule: Q01DX015 (ip), vehicle: saline 122 % of control | dose: 15.0 mg/kg/injection, schedule: Q01DX Z (ip), vehicle: saline 110 % of control

C1CCCCCC(N2CCCC2)CCCCC1
inactive: dose: 6.0 mg/kg/injection, schedule: Q01DX009 (ip), vehicle: saline 107 % of control | dose: 12.0 mg/kg/injection, schedule: Q01DX009 (ip), vehicle: saline 102 % of control | dose: 12.5 mg/kg/injection, schedule: Q04DX003 (ip), vehicle: saline 100 % of control | dose: 25.0 mg/kg/injection, schedule: Q01DX009 (ip), vehicle: saline 100 % of control | dose: 25.0 mg/kg/injection, schedule: Q04DX003 (ip), vehicle: saline 95 % of control

CC(C)(C)c1ccc(OC(=O)Nc2ccc(O)c(C(=O)O)c2)cc1
inactive: [12] 115 % of control | [3] 94 % of control and 98 % of control | dose: 100.0 mg/kg/injection, schedule: Q04DX002 (ip), vehicle: Klucel (hydroxypropylcellulose) (HPC) 96 % of control and 118 % of control | [4] 96 % of control | [5] 94 % of control | dose: 200.0 mg/kg/injection, schedule: Q04DX002 (ip), vehicle: Klucel (hydroxypropylcellulose) (HPC) 92 % of control and 86 % of control | [6] 86 % of control

COc1c(OC)c2c3c(c(-c4c(C)cc5c(C(C)C)c(OC)c(OC)c6c5c4OC6=O)c(C)cc3c1C(C)C)OC2=O
inactive: dose: 75.0 mg/kg/injection, schedule: Q04DX003 (ip), vehicle: Klucel (hydroxypropylcellulose) (HPC) 105 % of control | dose: 150.0 mg/kg/injection, schedule: Q04DX003 (ip), vehicle: Klucel (hydroxypropylcellulose) (HPC) 92 % of control | dose: 300.0 mg/kg/injection, schedule: Q04DX003 (ip), vehicle: Klucel (hydroxypropylcellulose) (HPC) 92 % of control

OCCCNc1nc2ccc(Br)cc2c2ccccc12
inactive: [3] 100 % of control | [4] 108 % of control | [5] 89 % of control | [6] 102 % of control | [7] 95 % of control | [8] 102 % of control

CN1C2CCC(O)C1CC2 (stereo not given)
inactive: [9] 102 % of control | [10] 102 % of control

CC(C)(C)S(=O)(=O)C(C)(C)C
inactive: [13] 93 % of control | [14] 90 % of control | dose: 400.0 mg/kg/injection, schedule: Q01DX009 (ip), vehicle: saline with Tween-80 88 % of control
